In article PMC3694003 (PLoS ONE, 2013):
Like-named read-outs stand apart in the source and are kept apart here. Bridge positions count the residues as written; N and C are the ends. Ends that are not written are not given here. Peptide text beside a SMILES is read from it.

Assays:
[1] = test system: degranulation marker LAMP-1 (CD107a); assay: CD107a degranulation assay; format: cell-based, human; conditions: 36 h, 4 µM, mean ± SD, three experiments
Description: (§1) Cells were treated for 24 or 36 h, respectively and were restimulated with PMA (50 ng/mL) and ionomycin (500 ng/mL) for additional 6 h. Supernatants were harvested by centrifugation and were stored at -20°C. The amount of cytokines was measured and quantified using the FlowCytomix^TM technique according to manufacturer’s instructions (eBioscience) or alternatively intracellular cytokine production was determined. For this purpose the cells were fixed and permeabilized using 4% paraformaldehyde (Sigma-Aldrich) and Perm/Wash solution (Becton Dickinson), followed by staining with PE-conjugated anti-human IFN-γ mAb or anti-human TNF-α mAb (both from eBioscience), respectively. For CD107a degranulation assay, cells were restimulated with PMA (10 or 50 ng/mL, respectively) und ionomycin (100 or 500 ng/mL, respectively) and to each well containing 200 µL of cell suspension, 5 µL (~0.25 µg) PE-conjugated anti-CD107a mAb (eBioscience) were added. After incubation at 37°C for 1 h, 2 µL of 1/10 diluted GolgiStop (Becton Dickinson) was added per well and the plates were incubated for another 2.5 h. Samples were analyzed with a BD FACSCalibur flow cytometer using BD CellQuest Pro Software.

[2] = test system: TNF-α; assay: TNF-α production of activated lymphocytes; format: cell-based, human; conditions: 4 µM, mean ± SD; for TNF-α production compared to control: 36 h post stimulation, intracellular cytokine flow cytometry
Description: as §1

[3] = test system: IL-2 release of activated lymphocytes; format: cell-based, human; conditions: 4 µM; 24 h then PMA/ionomycin 6 h; mean ± SD
Description: (§2) After cultivation, the cells were assessed in biological tests as described. Alternatively for IL-2 supplementation assays, lymphocytes or purified T-cells were equilibrated for 2 h at 37°C.
as §1

[4] = test system: IL-2 surface receptor CD25; format: cell-based, human; conditions: 4 µM; for IL-2 surface receptor CD25 expression compared to stimulated lymphocytes (ctrl, 100%): mean ± SD
Description: as §2
Cultured cells were washed with PBS and stained with PE-labeled anti-human CD25 mAbs (eBioscience) for 15 min at 4°C. Afterwards, the cells were washed twice with PBS and resuspended and transferred into FACS vials and expression of the IL-2 surface receptor α-chain CD25 was measured by FACS analysis using a FACSCalibur instrument.

[5] = test system: primary activated human lymphocytes (PBMCs); format: cell-based; conditions: for immunosuppressive activity: mutation in hydrophilic 'bioactive face', Table 1, Figure 2
Description: (§3) Purified T-cells were obtained by CD3^+ positive selection using magnetic cell separation method according to manufacturer’s instructions (StemCell Technologies, Grenoble, France). Cells were washed twice with medium and cell viability as well as concentration was determined using the trypan blue exclusion test.
as §2

[6] = test system: purified human T-cells (CD3+); format: cell-based; conditions: cyclotides 1.8-14 µM
Description: as §3, §2

[7] = test system: Ca2+-release in human primary T-cells; assay: Ca2+-release assay in T-cells; format: cell-based; conditions: for inhibition or delay of PMA/ionomycin-triggered Ca2+-release after pretreatment: 4 µM overnight (16 h), Fluo-4/Fura Red flow cytometry; for direct change in Ca2+-signaling: 4 µM, Fura-2 loaded T-cells, fluorometer
Description: Human primary T-cells (1 x 10^6/mL) were loaded with 1 µM Fura-2 and 0.02% Puronic F-127 for 30 min at 37°C. Cells were centrifuged for 5 min at 1200 rpm and resuspended in RPMI 1640 media supplemented with 10% fetal calf serum, penicillin (100 U/mL) and streptomycin (100 U/mL). 100 µL of cell suspension were transferred into a black 96-well plate with a clear flat-bottom. Briefly before analysis the fluorometer Synergy H4 (BioTek, Winooski, VT) was equilibrated to 37°C. The fluorescence time course was measured with: extinction at 340 and 380 nm, respectively, and emission at 510 nm in 30 sec intervals, while continuously shaking. […] To receive maximum Ca^2+-release, cells were stimulated with PMA (50 ng/mL) and ionomycin (500 ng/mL). For lowest Ca^2+-levels, cells remained untreated. […] (4 µM each) or left untreated over night at 37°C in a 24-well flat-bottom plate. Cells were stained for 15 min with Fluo-4 (2 µM) and Fura Red (4 µM), centrifuged at 1000 rpm for 5 min and resuspended in medium. Ca^2+-release was measured by time-dependent flow cytometry using BD FACSCalibur as described previously. Fluo-4 and Fura Red signals were detected using flow cytometric analysis. After equilibrating basal calcium levels for 60 sec, PMA (50 ng/mL) and ionomycin (500 ng/mL) were added to the preincubated T-cells. Fluorescence ratio was calculated using WEASEL 2.3 software.

[8] = test system: IFN-γ; assay: IFN-γ production of activated lymphocytes; format: cell-based, human; conditions: 4 µM, mean ± SD; for IFN-γ concentration compared to control: 24 h post stimulation, supernatant, ELISA-based, three experiments
Description: as §1

[9] = test system: primary human lymphocytes; format: cell-based; conditions: for proliferation compared to control, pretreated and washed cells with exogenous IL-2 / proliferation compared to control cells, pretreated and washed cells without exogenous IL-2: 4 µM pretreatment, PHA-L 10 µg/mL, day three, mean ± SD, three experiments; for proliferation compared to control, pretreated and washed cells with exogenous IL-2: recombinant human IL-2 added
Description: as §2
10 µg/milliliter PHA-L for 1 h. This was followed by washing off the substances and stimuli with PBS and resuspending the cells in medium for further assays as described.

[10] = test system: il-2 mRNA; assay: il-2 gene expression, quantitative RT-PCR; format: cell-based, human; conditions: 4 µM; lymphocytes; normalized to 18s rRNA
Description: Total RNA was extracted from controls or treated cells (4 x 10^6) and frozen at -80°C until further use. RNA purification was performed according to the manufacturer’s instructions for the RNeasy mini and RNAse-Free DNAse digestion kits (Qiagen, Hamburg, Germany). The quantity and purity of extracted RNA was measured by nanodrop spectrophotometry (Peqlab, Erlangen, Gemany) and purified RNA was reverse transcribed using the RT^2 First Strand Kit (Qiagen). RT-PCR reactions were carried out on a MyiQ kit (BioRad, Munich, Germany) in a final volume of 25 µL using RT² qPCR Primer Assay (for il-2) and SYBR® Green qPCR master mix (both from Qiagen). Each determination was performed in duplicate and the housekeeping gene 18s rRNA was used as an internal control. The real-time thermal cycler program comprised an initial denaturation step at 95 °C for 10 min followed by a two-step program with 40 cycles (95°C, 15 sec; and 60°C, 60 sec). The relative gene expression of il-2 has been determined by comparative cycle threshold analysis and the data were normalized to the internal housekeeping gene 18s rRNA and the relative mRNA level in the untreated group (untreated PHA-L-activated).

[11] = test system: lymphocytes and purified T-cells; assay: Cytotoxicity in proliferation experiments; format: cell-based, human; conditions: analyzed concentration range up to 14 µM
Description: as §2

[12] = test system: IL-2 release of purified T-cells; assay: IL-2 secretion of purified T-cells, ELISA-based; format: cell-based, human; conditions: 4 µM; 24 h then PMA/ionomycin 6 h; relative to [V10K] kalata B1
Description: as §2, §1

Compound	cells containing degranulation marker LAMP-1 as compared to control [1]	TNF-α production compared to control [2]	IL-2 release of T-lymphocytes compared to control cells [3]	immunosuppressive activity [5]	suppression of the proliferation of T-cells [6]	inhibition or delay of PMA/ionomycin-triggered Ca2+-release after pretreatment [7]	direct change in Ca2+-signaling [7]	IFN-γ concentration compared to control [8]	proliferation compared to control, pretreated and washed cells with exogenous IL-2 [9]	proliferation compared to control cells, pretreated and washed cells without exogenous IL-2 [9]	IL-2 surface receptor CD25 expression compared to stimulated lymphocytes (ctrl, 100%) ([4]; 24 h)	IL-2 surface receptor CD25 expression compared to stimulated lymphocytes (ctrl, 100%) ([4]; 36 h)	level of il-2 mRNA compared to control [10]	also measured
[V10K]: single point-mutated lysine analogue of kalata B1, position 10; 'inactive' mutant (GLPVCGETCKGGTCNTPGCTCSWPVCTRN; ends and bridges not checked; cysteine pairing not given here; UniProt P56254 89-117, looked up, variant V10K)	no influence	did not affect	no effect	lost their immunosuppressive activity	did not suppress	Neither cyclotides nor CsA induced any inhibition or a delay	did not induce any change	not affected	did not have any effect	no effect	–	–	–	IL-2 receptor surface level ([4]; time not given): unaffected
[V10A]: single point-mutated alanine analogue of kalata B1, position 10 (cyclo(GLPVCGETCAGGTCNTPGCTCSWPVCTRN); disulfide 14-26, 5-19, 9-21; ends not checked; UniProt P56254 89-117, looked up, variant V10A)	–	–	–	lost their immunosuppressive activity	did not suppress	–	–	–	–	–	–	–	–	–
[T8K]: single point-mutated lysine analogue of kalata B1, position 8 (GLPVCGEKCVGGTCNTPGCTCSWPVCTRN; ends and bridges not checked; cysteine pairing not given here; UniProt P56254 89-117, looked up, variant T8K)	–	–	–	lost their immunosuppressive activity	did not suppress	–	–	–	–	–	–	–	–	IC50 (µM) ± SD, inhibition of lymphocyte (PBMC) proliferation ([5]; CFSE flow cytometry, day three post stimulation, cyclotides 1.8-14 µM, non-linear regression (fixed slope), mean ± SD, a: n=7, b: n=4, c: n=3): not active (n.a.)^b
cyclosporin A [CsA, reference compound]	42% ± 21	–	–	–	–	Neither cyclotides nor CsA induced any inhibition or a delay	did not induce any change	–	–	–	76% ± 11	62% ± 7.3	clearly decreased	–
CC(C)C[C@@H]1NC(=O)CNC(=O)[C@H](CC(N)=O)NC(=O)[C@H](CCCNC(=N)N)NC(=O)[C@H]([C@@H](C)O)NC(=O)[C@@H]2CSSC[C@@H]3NC(=O)[C@H]([C@@H](C)O)NC(=O)CNC(=O)CNC(=O)[C@H](C(C)C)NC(=O)[C@@H]4CSSC[C@H](NC(=O)[C@H](CCCCN)NC(=O)[C@H](CSSC[C@H](NC(=O)[C@H](C(C)C)NC(=O)[C@@H]5CCCN5C1=O)C(=O)NCC(=O)N[C@@H](CCC(=O)O)C(=O)N[C@@H]([C@@H](C)O)C(=O)N4)NC(=O)CNC(=O)[C@@H]1CCCN1C(=O)[C@H]([C@@H](C)O)NC(=O)[C@H](CC(N)=O)NC3=O)C(=O)N[C@@H](CO)C(=O)N[C@@H](Cc1c[nH]c3ccccc13)C(=O)N1CCC[C@H]1C(=O)N[C@@H](C(C)C)C(=O)N2 [[T20K]] (cyclo(CGETCVGGTCNTPGCKCSWPVCTRNGLPV); disulfide 1-15, 5-17, 10-22 (inferred); ring closure inferred)	49% ± 17	did not affect	24% ± 19	–	–	Neither cyclotides nor CsA induced any inhibition or a delay	did not induce any change	21% ± 13	91% ± 1.4	29% ± 24	79% ± 10	46% ± 18	clearly decreased	TNF-α expression compared to control ([2]; 24 h post stimulation, supernatant, ELISA-based): 23% ± 11; IC50 ([5]; CFSE flow cytometry, day three post stimulation, cyclotides 1.8-14 µM, non-linear regression (fixed slope), mean ± SD, a: n=7, b: n=4, c: n=3, read-out: IC50 (µM) ± SD, inhibition of lymphocyte (PBMC) proliferation): 1.9 ± 0.6 µM; IC50 ([6]; CFSE flow cytometry, day 3, non-linear regression (fixed slope), mean ± SD, c: n=3, d: n=2, read-out: IC50 (µM) ± SD, inhibition of purified T-cell proliferation): 2.7 ± 0.6 µM; cytotoxicity [11]: no signs of cytotoxicity; IFN-γ level compared to control ([8]; 36 h post stimulation, intracellular cytokine flow cytometry): no effect; restoring of normal proliferation by addition of IL-2 ([9]; peptide still present throughout the whole cultivation period (not washed off)): ineffective; IL-2 release of purified T-cells [12]: significantly decreased
